Counter-ions that a name gives are not always drawn.
How the values were obtained:
[1] = biological target: T1, human alpha2C receptors (Homo sapiens, UniProt P18825); experiment: Determination of alpha2C antagonistic activity in vitro (FLIPR calcium assay); conditions: for Kb: Alpha 2C Adrenaline Kb, Kb calculated from IC50 with the Cheng-Prusoff equation, adrenaline as agonist, CHO cells, human alpha2C
T1 sequence (P18825 1-462): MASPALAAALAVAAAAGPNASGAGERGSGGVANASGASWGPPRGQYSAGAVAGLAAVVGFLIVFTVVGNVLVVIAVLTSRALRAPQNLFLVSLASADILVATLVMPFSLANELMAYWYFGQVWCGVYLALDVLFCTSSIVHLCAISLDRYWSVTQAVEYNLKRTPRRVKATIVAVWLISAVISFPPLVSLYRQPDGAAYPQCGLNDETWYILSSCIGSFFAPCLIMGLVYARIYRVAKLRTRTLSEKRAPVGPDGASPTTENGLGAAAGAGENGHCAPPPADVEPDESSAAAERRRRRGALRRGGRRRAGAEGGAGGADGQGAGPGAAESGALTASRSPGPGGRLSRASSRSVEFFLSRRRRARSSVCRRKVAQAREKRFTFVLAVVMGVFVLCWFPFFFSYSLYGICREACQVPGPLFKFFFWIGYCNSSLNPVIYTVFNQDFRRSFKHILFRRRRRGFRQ

[2] = biological target: T2, human alpha2A receptors (Homo sapiens, UniProt P08913); experiment: cell-based
T2 sequence (P08913 1-465): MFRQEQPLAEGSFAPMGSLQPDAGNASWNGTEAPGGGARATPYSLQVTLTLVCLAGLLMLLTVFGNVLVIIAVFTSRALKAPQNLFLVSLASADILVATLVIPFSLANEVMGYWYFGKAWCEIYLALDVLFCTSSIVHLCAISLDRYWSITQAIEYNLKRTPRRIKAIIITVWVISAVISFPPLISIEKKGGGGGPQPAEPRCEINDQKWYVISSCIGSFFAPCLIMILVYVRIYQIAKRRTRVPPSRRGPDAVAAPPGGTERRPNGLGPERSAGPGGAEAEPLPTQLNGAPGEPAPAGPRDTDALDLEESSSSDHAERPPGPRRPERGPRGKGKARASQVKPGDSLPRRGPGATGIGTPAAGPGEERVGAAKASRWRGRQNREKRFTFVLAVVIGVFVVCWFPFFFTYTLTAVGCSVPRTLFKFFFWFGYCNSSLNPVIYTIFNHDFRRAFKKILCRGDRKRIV

| Compound | IC50 [1] | Kb [1] | IC50 [2] | Kb [2] |
| --- | --- | --- | --- | --- |
| O=C1Cc2ccccc2N1[C@H]1CCCN(C[C@H]2COc3ccccc3O2)C1 [example 26, 1-((S)-1-(((S)-2,3-Dihydrobenzo[b][1,4]dioxin-2-yl)methyl)piperidin-3-yl)indolin-2-one] | 27.9 nM | 2.81 nM | > 10000 nM | > 449 nM |
| Cc1nc2c(F)cc(F)cc2n1[C@H]1CCCN(C[C@H]2COc3ccccc3O2)C1 [example 27, 1-((S)-1-(((S)-2,3-Dihydrobenzo[b][1,4]dioxin-2-yl)methyl)piperidin-3-yl)-4,6-difluoro-2-methyl-1H-benzo[d]imidazole] | 20.8 nM | 2.09 nM | > 10000 nM | > 449 nM |
| CC1CCC(=O)N1[C@H]1CCCN(C[C@H]2COc3ccccc3O2)C1 (stereo partly drawn) [example 30, 1-((S)-1-(((S)-2,3-Dihydrobenzo[b][1,4]dioxin-2-yl)methyl)piperidin-3-yl)-5-methylpyrrolidin-2-one] | 1.11 nM | 0.11 nM | > 1000 nM | > 45 nM |
| O=C1C2C3C=CC(C3)C2C(=O)N1[C@H]1CCCN(C[C@H]2COc3ccccc3O2)C1 (stereo partly drawn) [example 34, 2-((S)-1-(((S)-2,3-Dihydrobenzo[b][1,4]dioxin-2-yl)methyl)piperidin-3-yl)-3a,4,7,7a-tetrahydro-1H-4,7-methanoisoindole-1,3(2H)-dione] | 0.02 nM | 0.002 nM | 6860 nM | 308 nM |
| CC1(c2ccccc2)CC(=O)N([C@H]2CCCN(C[C@H]3COc4ccccc4O3)C2)C1=O (stereo partly drawn) [example 35, 1-((S)-1-(((S)-2,3-Dihydrobenzo[b][1,4]dioxin-2-yl)methyl)piperidin-3-yl)-3-methyl-3-phenylpyrrolidine-2,5-dione] | < 0.01 nM |  | 193 nM | 9 nM |
| O=C1C2CC2(c2ccccc2)C(=O)N1[C@H]1CCCN(C[C@H]2COc3ccccc3O2)C1 (stereo partly drawn) [example 37, 3-((S)-1-(((S)-2,3-Dihydrobenzo[b][1,4]dioxin-2-yl)methyl)piperidin-3-yl)-1-phenyl-3-azabicyclo[3.1.0]hexane-2,4-dione] | < 0.01 nM | < 0.001 nM | > 10000 nM | > 449 nM |
| CC1=CC(=O)N([C@H]2CCCN(C[C@H]3COc4ccccc4O3)C2)C1 [example 40, 1-((S)-1-(((S)-2,3-Dihydrobenzo[b][1,4]dioxin-2-yl)methyl)piperidin-3-yl)-4-methyl-1H-pyrrol-2(5H)-one] | 2.32 nM | 0.232 nM | > 10000 nM | > 449 nM |
| CC1=C(c2ccccc2)C(=O)N([C@H]2CCCN(C[C@H]3COc4ccccc4O3)C2)C1 [example 42, 1-((S)-1-(((S)-2,3-Dihydrobenzo[b][1,4]dioxin-2-yl)methyl)piperidin-3-yl)-4-methyl-3-phenyl-1H-pyrrol-2(5H)-one] | 331 nM | 33.3 nM | > 10000 nM | > 449 nM |
| O=C1N(c2ccccc2)CCN1[C@H]1CCCN(C[C@H]2COc3ccccc3O2)C1 [example 48, 1-((S)-1-(((S)-2,3-Dihydrobenzo[b][1,4]dioxin-2-yl)methyl)piperidin-3-yl)-3-phenylimidazolidin-2-one] | 29.9 nM | 3.01 nM | > 10000 nM | > 449 nM |
| COc1cccc2c1CN([C@H]1CCCN(C[C@H]3COc4ccccc4O3)C1)C2=O [example 55, 2-((S)-1-(((S)-2,3-Dihydrobenzo[b][1,4]dioxin-2-yl)methyl)piperidin-3-yl)-4-methoxyisoindolin-1-one] | 0.029 nM | 0.003 nM | > 10000 nM | > 449 nM |
| O=C1c2ccc(F)c(F)c2CN1[C@H]1CCCN(C[C@H]2COc3ccccc3O2)C1 [example 56, 2-((S)-1-(((S)-2,3-Dihydrobenzo[b][1,4]dioxin-2-yl)methyl)piperidin-3-yl)-4,5-difluoroisoindolin-1-one hydrochloride] | 0.519 nM | 0.052 nM | > 10000 nM | > 449 nM |
| O=C1c2ccc(F)cc2CN1[C@H]1CCCN(C[C@H]2COc3ccccc3O2)C1 [example 58, 2-((S)-1-(((S)-2,3-Dihydrobenzo[b][1,4]dioxin-2-yl)methyl)piperidin-3-yl)-5-fluoroisoindolin-1-one hydrochloride] | 0.299 nM | 0.03 nM | > 10000 nM | > 449 nM |
| Cc1ccc2c(c1)CN([C@H]1CCCN(C[C@H]3COc4ccccc4O3)C1)C2=O [example 59, 2-((S)-1-(((S)-2,3-Dihydrobenzo[b][1,4]dioxin-2-yl)methyl)piperidin-3-yl)-5-methylisoindolin-1-one formate] | < 0.01 nM | < 0.001 nM | > 10000 nM | > 449 nM |

More lines, now with the values ahead:

| IC50 [1] | Kb [1] | IC50 [2] | Kb [2] | Compound |
| --- | --- | --- | --- | --- |
| 5.43 nM | 0.547 nM | > 10000 nM | > 449 nM | Cc1nc2cc(F)c(F)cc2n1[C@H]1CCCN(C[C@H]2COc3ccccc3O2)C1 [example 28, 1-((S)-1-(((S)-2,3-Dihydrobenzo[b][1,4]dioxin-2-yl)methyl)piperidin-3-yl)-5,6-difluoro-2-methyl-1H-benzo[d]imidazole] |
| > 10000 nM | > 1010 nM | > 10000 nM | > 449 nM | O=C1C(c2ccccc2)CCN1[C@H]1CCCN(C[C@H]2COc3ccccc3O2)C1 (stereo partly drawn) [example 31, 1-((S)-1-(((S)-2,3-Dihydrobenzo[b][1,4]dioxin-2-yl)methyl)piperidin-3-yl)-3-phenylpyrrolidin-2-one] |
| < 0.01 nM | < 0.001 nM | 5210 nM | 234 nM | O=C1CC(c2ccccc2)CN1[C@H]1CCCN(C[C@H]2COc3ccccc3O2)C1 (stereo partly drawn) [example 32, 1-((S)-1-(((S)-2,3-Dihydrobenzo[b][1,4]dioxin-2-yl)methyl)piperidin-3-yl)-4-phenylpyrrolidin-2-one] |
| 1.54 nM | 0.153 nM | > 10000 nM | > 449 nM | O=C1C(=O)N([C@H]2CCCN(C[C@H]3COc4ccccc4O3)C2)CC1c1ccccc1 (stereo partly drawn) [example 38, 1-((S)-1-(((S)-2,3-Dihydrobenzo[b][1,4]dioxin-2-yl)methyl)piperidin-3-yl)-4-phenylpyrrolidine-2,3-dione] |
| 1.79 nM | 0.181 nM | > 10000 nM | > 449 nM | O=C1C=C(c2ccccc2)CN1[C@H]1CCCN(C[C@H]2COc3ccccc3O2)C1 [example 39, 1-((S)-1-(((S)-2,3-Dihydrobenzo[b][1,4]dioxin-2-yl)methyl)piperidin-3-yl)-4-phenyl-1H-pyrrol-2(5H)-one] |
| 11.8 nM | 1.19 nM | > 10000 nM | > 449 nM | O=C1C=C(c2ccc(F)cc2)CN1[C@H]1CCCN(C[C@H]2COc3ccccc3O2)C1 [example 41, 1-((S)-1-(((S)-2,3-Dihydrobenzo[b][1,4]dioxin-2-yl)methyl)piperidin-3-yl)-4-(4-fluorophenyl)-1H-pyrrol-2(5H)-one] |
| < 0.01 nM | < 0.001 nM | > 10000 nM | > 449 nM | COc1ccccc1C1=CC(=O)N([C@H]2CCCN(C[C@H]3COc4ccccc4O3)C2)C1 [example 43, 1-((S)-1-(((S)-2,3-Dihydrobenzo[b][1,4]dioxin-2-yl)methyl)piperidin-3-yl)-4-(2-methoxyphenyl)-1H-pyrrol-2(5H)-one formate] |
| < 0.1 nM | < 0.01 nM | 1020 nM | 46 nM | O=C1N(Cc2ccccc2)CCN1[C@H]1CCCN(C[C@H]2COc3ccccc3O2)C1 [example 50, 1-Benzyl-3-((S)-1-(((S)-2,3-dihydrobenzo[b][1,4]dioxin-2-yl)methyl)piperidin-3-yl)imidazolidin-2-one] |
| 0.11 nM | 0.01 nM | > 10000 nM | > 449 nM | CN1C(=O)N([C@H]2CCCN(C[C@H]3COc4ccccc4O3)C2)CC1(C)C [example 51, 1-((S)-1-(((S)-2,3-Dihydrobenzo[b][1,4]dioxin-2-yl)methyl)piperidin-3-yl)-3,4,4-trimethylimidazolidin-2-one] |
| 4.95 nM | 0.5 nM | > 10000 nM | > 449 nM | CN1CCCN([C@H]2CCCN(C[C@H]3COc4ccccc4O3)C2)C1=O [example 54, 1-((S)-1-(((S)-2,3-Dihydrobenzo[b][1,4]dioxin-2-yl)methyl)piperidin-3-yl)-3-methyltetrahydropyrimidin-2(1H)-one] |
| 1.54 nM | 0.15 nM | > 10000 nM | > 449 nM | O=C1c2cccc(F)c2CN1[C@H]1CCCN(C[C@H]2COc3ccccc3O2)C1 [example 57, 2-((S)-1-(((S)-2,3-Dihydrobenzo[b][1,4]dioxin-2-yl)methyl)piperidin-3-yl)-4-fluoroisoindolin-1-one hydrochloride] |

Reference: US20190152992A1, “BENZODIOXANE DERIVATIVES AND THEIR PHARMACEUTICAL USE” (Orion Corporation, priority 2016, published 2019)
